Measured values from patent US20200172473A1, “DUAL MODULATORS OF FARNESOID X RECEPTOR AND SOLUBLE EPOXIDE HYDROLASE” (JOHANN WOLFGANG GOETHE-UNIVERSITÄT FRANKFURT AM MAIN, priority 2017, published 2020).
In brackets after ≈: the same amount, converted by molar mass.

What was measured:
FXR-LBD = target: T1, FXR-LBD (Homo sapiens, UniProt Q96RI1); assay: isothermal titration calorimetry (ITC); assay type: binding
T1 sequence (Q96RI1 262-486 limits assumed): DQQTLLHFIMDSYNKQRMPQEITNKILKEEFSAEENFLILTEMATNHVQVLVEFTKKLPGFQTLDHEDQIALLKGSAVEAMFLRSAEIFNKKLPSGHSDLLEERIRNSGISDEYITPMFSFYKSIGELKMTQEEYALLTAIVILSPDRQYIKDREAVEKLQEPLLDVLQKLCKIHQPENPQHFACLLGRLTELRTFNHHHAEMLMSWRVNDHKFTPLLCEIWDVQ

RXRα = target: T2, RXRα (Homo sapiens, UniProt P19793); assay: Gal4-hybrid reporter gene assay RXRα in HEK293T cells; assay type: cell-based; settings: 10 μM
T2 construct: hRXRα-P19793, residues 225-462; expressed in transfected cells; host or cells: HEK293T
T2 sequence (P19793 225-462): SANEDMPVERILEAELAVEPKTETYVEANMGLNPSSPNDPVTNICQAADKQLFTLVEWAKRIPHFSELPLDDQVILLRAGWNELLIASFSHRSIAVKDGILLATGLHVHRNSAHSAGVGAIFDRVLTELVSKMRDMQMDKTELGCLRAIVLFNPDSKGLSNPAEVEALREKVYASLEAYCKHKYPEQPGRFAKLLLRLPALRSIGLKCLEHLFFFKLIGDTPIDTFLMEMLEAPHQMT
Text: (§1) Hybrid reporter gene assays for PPARα/γ/δ, LXRα/β, RXRα/β/γ, RARα/β/γ, VDR and PXR Plasmids: The Gal4-fusion receptor plasmids pFA-CMV-hPPARα-LBD^52, pFA-CMV-hPPARγ-LBD^52, pFA-CMV-hPPARδ-LBD^52, pFA-CMV-hLXRα-LBD^32 and pFA-CMV-hLXRβ-LBD^32 have been reported previously. […] Frame and sequence of all fusion receptors were verified by sequencing. pFR-Luc (Stratagene) was used as reporter plasmid and pRL-SV40 (Promega) for normalization of transfection efficiency and cell growth.
(§2) Assay procedure: HEK293T cells were grown in DMEM high glucose, supplemented with 10% FCS, sodium pyruvate (1 mM), penicillin (100 U/mL) and streptomycin (100 μg/mL) at 37° C. and 5% CO2. The day before transfection, HEK293T cells were seeded in 96-well plates (2.5·10^4 cells/well). Before transfection, medium was changed to Opti-MEM without supplements. Transient transfection was carried out using Lipofectamine LTX reagent (Invitrogen) according to the manufacturer's protocol with pFR-Luc (Stratagene), pRL-SV40 (Promega) and pFA-CMV-hRXRα-LBD. 5 h after transfection, medium was changed to Opti-MEM supplemented with penicillin (100 U/mL), streptomycin (100 μg/mL), now additionally containing 0.1% DMSO and the respective test compound or 0.1% DMSO alone as untreated control. […] Luminescence was measured with an Infinite M200 luminometer (Tecan Deutschland GmbH). […]

aqueous solubility = assay type: physicochemical; settings: LLOQ 0.1 μg/mL
LXRα = target: T3, LXRα (Homo sapiens, UniProt Q13133); assay: Gal4-hybrid reporter gene assay LXRα in HEK293T cells; assay type: cell-based; settings: 10 μM; printed as both LXR subtypes
T3 construct: pFA-CMV-hLXRα-LBD; expressed in transfected cells; host or cells: HEK293T
T3 sequence (Q13133 209-447 limits assumed): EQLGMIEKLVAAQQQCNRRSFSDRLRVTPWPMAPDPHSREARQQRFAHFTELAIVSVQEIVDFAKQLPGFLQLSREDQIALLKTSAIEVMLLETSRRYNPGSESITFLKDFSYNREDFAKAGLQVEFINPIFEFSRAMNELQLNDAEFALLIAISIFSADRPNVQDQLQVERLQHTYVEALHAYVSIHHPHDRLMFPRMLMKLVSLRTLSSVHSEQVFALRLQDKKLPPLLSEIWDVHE
Text: as §1, §2

PPARγ = target: T4, PPARγ (Homo sapiens, UniProt P37231); assay: Gal4-hybrid reporter gene assay PPARγ in HEK293T cells; assay type: cell-based
T4 construct: pFA-CMV-hPPARγ-LBD; expressed in transfected cells; host or cells: HEK293T
T4 sequence (P37231 238-503 limits assumed): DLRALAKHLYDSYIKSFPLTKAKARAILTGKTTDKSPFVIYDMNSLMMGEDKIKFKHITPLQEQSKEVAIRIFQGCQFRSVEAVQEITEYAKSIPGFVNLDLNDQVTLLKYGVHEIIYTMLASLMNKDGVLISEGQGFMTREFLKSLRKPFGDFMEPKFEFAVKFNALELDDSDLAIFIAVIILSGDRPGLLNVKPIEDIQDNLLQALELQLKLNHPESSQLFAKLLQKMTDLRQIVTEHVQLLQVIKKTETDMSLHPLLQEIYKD
Text: as §1
Assay procedure: HEK293T cells were grown in DMEM high glucose, supplemented with 10% FCS, sodium pyruvate (1 mM), penicillin (100 U/mL) and streptomycin (100 μg/mL) at 37° C. and 5% CO2. The day before transfection, HEK293T cells were seeded in 96-well plates (2.5·10^4 cells/well). Before transfection, medium was changed to Opti-MEM without supplements. Transient transfection was carried out using Lipofectamine LTX reagent (Invitrogen) according to the manufacturer's protocol with pFR-Luc (Stratagene), pRL-SV40 (Promega) and pFA-CMV-hRXRα-LBD. 5 h after transfection, medium was changed to Opti-MEM supplemented with penicillin (100 U/mL), streptomycin (100 μg/mL), now additionally containing 0.1% DMSO and the respective test compound or 0.1% DMSO alone as untreated control. Each concentration was tested in triplicates and each experiment was repeated independently at least three times. […] Luminescence was measured with an Infinite M200 luminometer (Tecan Deutschland GmbH). […] Fold activation was obtained by dividing the mean RLU of a test compound at a respective concentration by the mean RLU of untreated control. Relative activation was obtained by dividing the fold activation of a test compound at a respective concentration by the fold activation of a respective reference agonist at 1 μM (PPARα: GW7647; PPARγ: pioglitazone; PPARδ: L165,041; LXRα/β: T0901317; RXRs: bexarotene; RARs: tretinoin; VDR calcitriol; PXR: SR12813).

[1] = observation of animals in the pilot in vivo study; parameters: species or system mouse; settings: single oral dose 10 mg/kg body weight
Procedure: Animals and compound application: 9 male C57BL/6JRj mice (23-26 g body weight, purchased from Janvier Labs, France) were used in the present study. The animals were housed in a temperature-controlled room (20-24° C.) and maintained in a 12 h light/12 h dark cycle. Food and water were available ad libitum. The in life phase was performed by the contract research organization Pharmacelsus (Saarbrücken, Germany). All experimental procedures were approved by and conducted in accordance with the regulations of the local Animal Welfare authorities (Landesamt für Gesundheit und Verbraucherschutz, Abteilung Lebensmittel-und Veterinärwesen, Saarbrücken). Six animals received a single oral dose of 10 mg/kg body weight of dual modulator 57 in water containing 1% HPMC/Tween 80 (99:1). Three animals received the vehicle (water containing 1% HPMC/Tween 80 (99:1)).

[2] = in vivo pharmacokinetic evaluation in mice; parameters: species or system mouse; settings: single dose p.o. 10 mg/kg body weight
Procedure: Three additional animals served as vehicle control.
Food and water were available ad libitum.
A part of the blood was centrifuged (6000 rpm, 10 min, +4° C.) to obtain plasma for quantification of EET/DHET ratio and stored at −80° C. until further evaluation. For liver collection, mice were sacrificed by cervical dislocation after the last blood sampling (8 h post dose). Complete liver was immediately snap-frozen and stored at −80° C. until further evaluation. Plasma and liver were equally obtained from three control mice which received oral application of the vehicle (1% HPMC/Tween 80 (99:1)).

CC(C)(C)c1ccc(C(=O)NCc2ccc(NS(C)(=O)=O)cc2Cl)cc1 [compound 57, 4-(tert-Butyl)-N-(2-chloro-4-(methylsulfonamido)benzyl)benzamide]
Kd (FXR-LBD): 0.13 µM | ΔH (ITC) (FXR-LBD): -19.5 kcal/mol | ΔS (ITC) (FXR-LBD): −34.0 cal/mol·K | activity on RXRα (RXRα): inactive | aqueous solubility (aqueous solubility): 1.5 µg/mL (≈ 3.8 µM) | activity on LXRα (LXRα): inactive | selectivity for FXR amongst nuclear receptors (PPARγ): ≥ 720 | PPARγ max. activation (PPARγ; relative to pioglitazone at 1 μM): 30±1% | EC50 (PPARγ; weak partial agonism): 14.7 ± 0.9 µM | adverse effects in mice [1]: no adverse effects | Cmax [2]: 1182 ng/mL | t1/2 [2]: 42 min | tmax [2]: 30 min
